Test [1] deals with induced pluripotent stem cell-derived myoblasts. In words: PAX7 mRNA expression in induced pluripotent stem cell-derived myoblasts. The conditions noted are these: 20 ng/ml bFGF, 3 μM CHIR99021, 2.5 μg/ml DLL1, alone or combined; vs untreated control (FIG. 1). It is filed as cell-based, human.
Test [2] relates to induced pluripotent stem cell-derived myotubes. In words: qPCR screen of myogenic differentiation markers, 70 small molecules. It is filed as cell-based, human. As to conditions: for MyoD, MyoG and MYHC (myosin heavy chain) expression: each individually, during drug-induced myogenesis from human iPSC (FIG. 9); for expression of differentiated myocyte markers MYOG, MYHC, MYH3, MYH8 and adult myotube markers MYH7, MYH2, MYH1: screen, vs untreated control (FIG. 9). The method, then:
FIG. 9 is a heat map showing the levels of MYOG, MYHC, MYH3, MYH8, MYH7, MYH2, MYH1 expression in induced pluripotent stem cell-derived myotubes after screening with 70 different small molecules related to the metabolomics findings, compared to an untreated control group.
Thus carnitine to facilitate fatty acid oxidation, the fatty acids linoleate, arachidonate and palmitate to fuel fatty acid oxidation were tested. It was also tested whether statin inhibitors of steroid synthesis, such as fluvastatin, and steroids like testosterone or progesterone could boost human myotube differentiation. Against this background, a variety of other small molecule drugs and metabolites were also screened, including OxPhos inhibitors and vitamins, to test their effects on myotube differentiation. A qPCR screen was then performed for various myogenic differentiation markers on human induced pluripotent stem cell-derived myoblasts exposed to these 70 conditions (FIG. 9).
On the technique in general: In qPCR the cycle at which signal appears reflects the starting amount.

The subject of test [3] is human induced pluripotent stem cell-derived myoblasts. In words: qPCR screen of lineage markers (OCT3/4, NCAM, AFP, PAX7), 70 small molecules. It counts as cell-based. The conditions noted are these: vs untreated control (FIG. 3); for PAX7 mRNA expression: during FGF/Wnt/Notch-induced myogenesis. As to the method: FIG. 3 is a heat map showing the levels of OCT3/4, NCAM, AFP and PAX7 mRNA expression in induced pluripotent stem cell-derived myoblasts after screening with 70 different small molecules related to the metabolomics findings, compared to an untreated control group.
Thus, the adenylyl cyclase agonist Forskolin was tested to induce cAMP synthesis, and cobalamin was administered to see if these compounds boosted the expansion of human myoblasts. It was also tested whether glutamine, hypoxanthine and thymidine—all of which are rate-limiting for nucleotide synthesis—could boost human myoblast expansion. Against this background, a variety of other small molecule drugs and metabolites were screened, including amino acids and fatty acids, thereby testing their effects on myoblast expansion. A real-time polymerase chain reaction (qPCR) screen was then performed for various lineage markers (pluripotency marker OCT3/4, neuromuscular marker NCAM, endoderm marker AFP, muscle marker Pax7) on human induced pluripotent stem cell-derived myoblasts exposed to these 70 conditions (FIG. 3).

The values below come from patent US20180245048A1, “METHODS AND COMPOSITIONS FOR EXPANSION AND DIFFERENTIATION OF SKELETAL MUSCLE STEM CELLS OR PROGENITOR CELLS” (AGENCY FOR SCIENCE, TECHNOLOGY AND RESEARCH, priority 2015, published 2018).

For the compound `Cc1cnc(-c2cnc(NCCNc3ccc(C#N)cn3)nc2-c2ccc(Cl)cc2Cl)[nH]1` [CHIR99021, 6-[[2-[[4-(2,4-dichlorophenyl)-5-(5-methyl-1H-imidazol-2-yl)-2 pyrimidinyl]amino]ethyl]amino]-3-pyridinecarbonitrile, reference compound], the “PAX7 mRNA expression” value in test [1] is “increase in PAX7 expression”.

Consider `CC(=O)OC(CC(=O)[O-])C[N+](C)(C)C` (centres unmarked) [O-acetyl-carnitine], for which the “MyoD, MyoG and MYHC (myosin heavy chain) expression” value (from here on “MyoD, MyoG and MYHC”) in test [2] was “specifically increase”.

In the case of `C[N+](C)(C)CC(O)CC(=O)[O-]` (centres unmarked) [carnitine], in test [2], the “MyoD, MyoG and MYHC” value is listed as “specifically increase”; the “expression of differentiated myocyte markers MYOG, MYHC, MYH3, MYH8 and adult myotube markers MYH7, MYH2, MYH1” value is on record as “increase expression”.

For the compound `NC(=O)CC[C@H](N)C(=O)O` [glutamine], in test [3], the “PAX7 mRNA expression” value is on record as “specifically increase”, the “AFP (endoderm marker) mRNA expression” value is “without increasing”, the “NCAM (neuromuscular marker) mRNA expression” value is listed as “increase” and the “OCT3/4 (pluripotency marker) mRNA expression” value is on record as “without increasing”.

Turning to `O=c1[nH]cnc2nc[nH]c12` [hypoxanthine], the “PAX7 mRNA expression” value in test [3] is given as “specifically increase”.

With `CCCCC/C=C\C/C=C\CCCCCCCC(=O)O` [linoleic acid], in test [2], the “MyoD, MyoG and MYHC” value is listed as “specifically increase”; the “expression of differentiated myocyte markers MYOG, MYHC, MYH3, MYH8 and adult myotube markers MYH7, MYH2, MYH1” value is “increase expression”.

In the case of `C[C@]12CC[C@H]3[C@@H](CCC4=CC(=O)CC[C@@]43C)[C@@H]1CC[C@@H]2O` [testosterone, reference compound], in test [2], the “MyoD, MyoG and MYHC” value was “specifically increase”; the “expression of differentiated myocyte markers MYOG, MYHC, MYH3, MYH8 and adult myotube markers MYH7, MYH2, MYH1” value is recorded as “increase expression”.

In the case of `Cc1cn([C@H]2C[C@H](O)[C@@H](CO)O2)c(=O)[nH]c1=O` [thymidine], in test [3], the “PAX7 mRNA expression” value was “specifically increase”.

Consider “bFGF: FGF2 (basic fibroblast growth factor), FGF signalling agonist”, for which the “PAX7 mRNA expression” value in test [1] is on record as “increase in PAX7 expression”.

Turning to cobalamin [vitamin B12], in test [3], the “PAX7 mRNA expression” value is “increase”, the “AFP (endoderm marker) mRNA expression” value is on record as “without increasing”, the “NCAM (neuromuscular marker) mRNA expression” value is on record as “increase” and the “OCT3/4 (pluripotency marker) mRNA expression” value is “without increasing”. Moreover, in test [3] (listed as cobalamin), the “PAX7 mRNA expression” value is listed as “specifically increase”.
